Test results as given in patent US20130197030A1, “Substituted 1,3-Dioxanes and There Uses” (Evolva Sa, priority 2007, published 2013).
pIC50, pKi: −log10 of the molar value.

How the values were obtained:
[1] = molecular target: T1, Thromboxane receptor (TP) (Homo sapiens, UniProt P21731); test: TP receptor radioligand binding; details: Human recombinant HEK-293 cells, 5 nM [3H] SQ-29548
T1 construct: expressed in transfected cells; host or cells: HEK-293 cells
T1 sequence (P21731 1-343): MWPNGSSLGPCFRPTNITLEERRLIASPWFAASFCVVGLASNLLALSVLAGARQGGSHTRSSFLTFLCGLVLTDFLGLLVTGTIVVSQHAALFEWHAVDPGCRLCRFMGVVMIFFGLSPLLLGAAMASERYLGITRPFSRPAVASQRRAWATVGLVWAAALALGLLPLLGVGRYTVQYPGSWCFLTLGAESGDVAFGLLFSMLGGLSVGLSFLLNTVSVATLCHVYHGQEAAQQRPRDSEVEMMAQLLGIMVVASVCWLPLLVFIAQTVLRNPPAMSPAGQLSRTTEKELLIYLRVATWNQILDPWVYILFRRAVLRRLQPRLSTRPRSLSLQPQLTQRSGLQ
Experimental: The compounds were tested on radioligand binding assays for thromboxane receptor binding essentially as described by Hedberg et al. (1988) J. Pharmacol. Exp. Ther. 245:786-792 and Saussy et al. (1986) J. Biol. Chem. 261: 3025-3029 according to the following:
TP Receptor Radioligand Binding Studies:
Human recombinant HEK-293 cells,
Incubation Time, Temp: 30 minutes at 25° C.
Incubation Buffer: 50 mM Tris-HCl, pH 7.4, 154 mM NaCl
Non-Specific Ligand: 1 μM SQ-29548
The data were transformed to semi-log and then analysed using non-linear regression to a four-parameter dose-response curve Y=Bottom+(Top−Bottom)/(1+10̂((LogEC50−X)*HillSlope)) using the log(agonist) vs. response—Variable slope function of GraphPad Prism software (http://graphpad.com/help/prism5/prism5help.html?usingnonlinear_regression_step_by_s.htm).

Thromboxane synthase = molecular target: T2, Thromboxane synthase (Homo sapiens, UniProt P24557); test: Human platelet thromboxane synthase assay; format: biochemical
T2 construct: Human Platelet Thromboxane Synthase Assay; from tissue; host or cells: human platelets
T2 sequence (P24557 1-533): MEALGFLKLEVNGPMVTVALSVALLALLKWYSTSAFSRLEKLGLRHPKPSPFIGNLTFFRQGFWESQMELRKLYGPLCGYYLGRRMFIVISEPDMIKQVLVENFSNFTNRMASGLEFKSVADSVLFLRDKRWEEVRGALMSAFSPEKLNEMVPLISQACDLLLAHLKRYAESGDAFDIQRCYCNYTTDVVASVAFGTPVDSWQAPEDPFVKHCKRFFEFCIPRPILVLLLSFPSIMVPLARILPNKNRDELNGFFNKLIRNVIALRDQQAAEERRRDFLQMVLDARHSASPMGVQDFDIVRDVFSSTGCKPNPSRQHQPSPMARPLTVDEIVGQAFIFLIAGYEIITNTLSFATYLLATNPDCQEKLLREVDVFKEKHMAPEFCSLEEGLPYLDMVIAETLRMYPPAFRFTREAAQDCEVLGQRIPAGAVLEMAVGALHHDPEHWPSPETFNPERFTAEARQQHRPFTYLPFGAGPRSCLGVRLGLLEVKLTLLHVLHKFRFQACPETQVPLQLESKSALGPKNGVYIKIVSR
Experimental: The compounds were tested for thromboxane synthase inhibition essentially as described by Borsch-Haubold A G, Pasquet S, Watson S P. (1998). Direct inhibition of cyclooxygenase-1 and -2 by the kinase inhibitors SB 203580 and PD 98059. […] 1. Imidazole derivatives. J Med. Chem. (10):1139-48 according to the following:
Pre-incubation time, temp: 15 minutes at 25° C. Incubation time, temp: 3 minutes at 25° C.
Incubation Buffer: 10 mM Tris-HCl, pH 7.4
Quantification Method: ETA quantification of TxB2

[2] = system: arterial thrombosis in a mouse model; test: Arterial thrombosis in a mouse model (FeCl3, femoral artery); format: in vivo; details: mice; dose not given
Experimental: The solutions are diluted 3.3-fold in saline and 100 μl/25 g is injected. Thus, the above-mentioned doses of 100 and 300 mg/kg of compound correspond to final doses of 30 and 100 mg/kg.
During the experiments, a soluble salt of the drug is provided (e.g., potassium salt of compound C), diluted in saline. Of this formulation, 100 μl/25 g is injected i.v. in the tail vein (dose of 100 mg/kg).
Solutions are injected (100 μl/25 g body weight) i.v. in the tail vein over 2 min to obtain doses of each compound of 30 mg/kg and 100 mg/kg. Aspirin is given the same way at a dose of 200 mg/kg. Clopidogrel is administered by oral gavage at a dose of 20 mg/kg at 6-7 hours prior to the experiment. The animals assigned to each group are matched for body weight. Mice are typically 8-10 weeks old males and are in a 100% Swiss genetic background.
The flow in each image is expressed as a percentage of that at the contralateral side, and data are averaged for all 120 images to determine total flow. The same analysis is performed for 10 min intervals (which gives essentially the same information as the area under the curve). […] Flow before treatment is recorded as 100%, and that in occluded arteries as 0%. At the end of the experiment, blood is collected on 0.01M citrate buffer by heart puncture for determination of blood cell counts. Plasma is prepared by centrifugation and stored at −20° C. for determination of drug levels.
Statistical analysis for differences between two groups is performed by non-parametric Student t-test. Occlusion times >30 min were considered equal to 30 min for statistical analysis. Significance is set at p<0.05.

3T3-L1 adipocytes = test: Insulin-stimulated glucose uptake assay; format: cell-based; details: compared with Compound A (racemate)
Experimental: Briefly, glucose uptake is measured in 3T3-L1 adipocytes cultured in 96-well plates. On day 6 of differentiation (according to the MDI-protocol, see above) cells are treated with either vehicle, positive control (Avandia) or test compound. 48 hours later the ability of adipocytes to take up glucose in response to insulin is determined. Cells are washed with serum-free DMEM+antibiotics and incubated in the same medium at 37° C. for 2 hours. Cells are then washed and subsequently incubated in Krebs-Ringer-Hepes (KRP) buffer for 30 min at 37° C. Hereafter, insulin is added to the cells to a final concentration of 10 nM and cells are then incubated at 37° C. for 15 min. Glucose uptake is initiated by the addition of KRP buffer supplemented with 10 mM [^14C] 2-deoxy-D-glucose. After further incubation for 15 min at 37° C., glucose uptake is terminated by addition of a large surplus of cold glucose and three rapid washes of ice-cold PBS. Cells are then lysed and ^14C-radioactivity determined by scintillation counting.

In the case of `O=C(O)CC/C=C\CC1COC(c2coc3ccc(Cl)cc3c2=O)OC1c1ccccc1O` (racemic) [Compound 3, (Z)-6-(2-(6-Chloro-4-oxo-4H-chromen-3-yl)-4-(2-hydroxyphenyl)-1,3-dioxan-5-yl)hex-4-enoic acid], the pIC50 [1] was 7.82, the pKi [1] was 8.00 and the inhibition at 10 µM ([1]; at 10 μM) was 97%. The pIC50 (Thromboxane synthase) was 7.25, the “Inhibition of thromboxane synthase (in words)” value (Thromboxane synthase) was “potent inhibitors of thromboxane synthase” and the inhibition at 5 µM (Thromboxane synthase; at 5 μM) was 94%. For the same compound, the Occlusion time [2] was “prolongs the occlusion time”, the Total blood flow [2] was “improves total blood flow” and the “Effect in glucose uptake assays (in words)” value (3T3-L1 adipocytes) was “effect similar if not better to Compound A (racemate)”.
